Test results taken from BindingDB's records for doi:10.1016/j.chembiol.2016.11.007 (University of Connecticut, 2016).

Legend:
Test in all cases: DHFR Inhibition Assay
Dihydrofolate reductase [1] = target: T1, Dihydrofolate reductase (Staphylococcus aureus, UniProt Q4H3Y3)
T1 sequence (Q4H3Y3 whole entry): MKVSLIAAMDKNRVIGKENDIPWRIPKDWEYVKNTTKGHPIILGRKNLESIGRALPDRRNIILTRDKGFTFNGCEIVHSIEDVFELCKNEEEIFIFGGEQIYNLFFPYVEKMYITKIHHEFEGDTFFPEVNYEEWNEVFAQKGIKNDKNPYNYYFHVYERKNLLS

[2] = target: Dihydrofolate reductase type 1 from Tn4003 (Staphylococcus aureus, UniProt P13955)
Chain of Dihydrofolate reductase type 1 from Tn4003 (P13955 whole entry): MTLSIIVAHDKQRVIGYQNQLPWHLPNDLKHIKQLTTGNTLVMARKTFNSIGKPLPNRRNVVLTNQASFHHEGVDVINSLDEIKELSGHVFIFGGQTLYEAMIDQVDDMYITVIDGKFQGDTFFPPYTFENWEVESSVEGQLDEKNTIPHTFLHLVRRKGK

Dihydrofolate reductase [3] = target: T2, Dihydrofolate reductase (Staphylococcus aureus, UniProt C7C2U7)
T2 sequence (C7C2U7 whole entry): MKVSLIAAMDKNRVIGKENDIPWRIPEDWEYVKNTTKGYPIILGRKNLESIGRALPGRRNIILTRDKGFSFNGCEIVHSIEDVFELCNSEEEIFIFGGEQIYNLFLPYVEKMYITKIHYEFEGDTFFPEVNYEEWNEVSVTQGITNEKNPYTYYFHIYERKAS

Dihydrofolate reductase [4] = target: Dihydrofolate reductase (Staphylococcus aureus, UniProt P0A017)
Chain of Dihydrofolate reductase (Staphylococcus aureus, UniProt P0A017) (P0A017 whole entry): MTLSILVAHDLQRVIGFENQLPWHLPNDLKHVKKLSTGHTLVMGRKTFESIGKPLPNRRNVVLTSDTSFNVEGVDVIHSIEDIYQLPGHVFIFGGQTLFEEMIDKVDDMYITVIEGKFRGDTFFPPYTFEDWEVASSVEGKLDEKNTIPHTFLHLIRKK

| SMILES | IC50 (Dihydrofolate reductase [1]) [nM] | IC50 [2] [nM] | IC50 (Dihydrofolate reductase [3]) [nM] | IC50 (Dihydrofolate reductase [4]) [nM] |
| --- | --- | --- | --- | --- |
| CCc1nc(N)nc(N)c1C#CCc1cc(OC)c(OC)c(-c2ccncc2)c1 [UCP1039] | 450 | 360 | 22 |  |
| CCc1nc(N)nc(N)c1C#C[C@@H](C)c1cc(-c2ccc(C(=O)O)cc2)ccc1OC [UCP1164] |  | 8800 |  |  |
| CCc1nc(N)nc(N)c1C#C[C@@H](C)c1cc(OC)cc(-c2ccc(C(=O)O)cc2)c1 [UCP1172] |  | 410 |  |  |
| CCc1nc(N)nc(N)c1C#C[C@H](C)c1cc(OC)cc(-c2ccc(C(=O)O)cc2)c1 [UCP1173] |  | 270 |  |  |
| CCc1nc(N)nc(N)c1C#CCc1cc(OC)cc(-c2ccc(C(=O)O)cc2)c1 [UCP1175] | 1400 | 980 | 170 |  |
| CCc1nc(N)nc(N)c1C#CC(C)c1cc2c(c(-c3ccc(C(=O)O)cc3)c1)OCO2 (stereo unspecified) [UCP1191] | 87 | 320 | 41 | 10 |
| CCc1nc(N)nc(N)c1C#C[C@@H](C)c1cc2c(c(-c3ccc(C(=O)O)cc3)c1)OCO2 [UCP1205] | 159 | 340 | 100 | 18 |
| CCc1nc(N)nc(N)c1C#C[C@H](C)c1cc2c(c(-c3ccc(C(=O)O)cc3)c1)OCO2 [UCP1206] | 190 | 180 | 54 | 17 |
